According to patent US20230310534A1, “QUENCHERS THAT SLOW, DECREASE, OR INHIBIT THE FORMATION OF CHEMIEXCITATION-INDUCED CYCLOBUTANE PYRIMIDINE DIMERS” (L'OREAL, priority 2017, published 2023):

Tests used:
Format in all cases: biochemical
[1] = Superoxide radical absorbance capacity (SORAC) test, WST-1 probe; conditions: activity grade 0-4
Experimental: Superoxide radical absorbance capacity tests were conducted to measure the capacity of an antioxidant material to dismutate superoxide anion. The Varioskan Flush was employed to measure the superoxide dismutase-catalyzed dismutation of the superoxide anion in the presence of the absorbance probe, water-soluble tetrazolium salt (WST-1). The superoxide radical antioxidant (SORAC) assay is based on an inhibition assay and is suitable for evaluating superoxide dismutase or superoxide dismutase-like activities in samples.

[2] = Peroxynitrite radical absorbance capacity test, dihydrorhodamine 123 indicator; conditions: activity grade 0-4
Experimental: Peroxynitrite radical absorbance capacity tests were conducted to measure the capacity of an antioxidant material to quench peroxynitrite. Dihydrorhodamine 123 was used as an indicator of peroxynitrite in tubo for peroxynitrite radical absorbance capacity tests with Varioskan Flush. […]

[3] = Melanin oxidation assay (peroxynitrite/melanin chemiluminescence quenching); conditions: peroxynitrite, melanin and DBAS in DMSO; measured at 150 seconds and 500 seconds
Text: An easy and fast assay was developed to measure quenching of chemiluminescence from the triplet carbonyl of a cleaved dioxetane that was created when peroxynitrite (ONOO—) reacted with melanin. As such, it measured both triplet quenching and any scavenging activity that prevented the chemiexcitation reaction from starting. DMSO was used as a solvent for the entire reaction, DBAS to enhance the luminescence and a liquid scintillation counter set to single-photon mode to detect the luminescence signal.
In this assay, peroxynitrite, melanin, and DBAS were incubated in DMSO in the absence or presence of test agents, and light emission quenching (%) was measured at 150 seconds and 500 seconds (FIG. 1).

Compound | Anti-superoxide [1] | Anti-peroxynitrite [2] | light emission quenching (hit) [3]
O=c1oc2c(O)c(O)cc3c(=O)oc4c(O)c(O)cc1c4c23 [Ellagic acid] | 2 | 4 | showed a quenching effect
C/C=C/C=C/C(=O)O [sorbic acid] | – | – | showed a quenching effect
CC1=C(/C=C/C(C)=C/C=C/C(C)=C/C=C/C=C(C)/C=C/C=C(C)/C=C/C2=C(C)CCCC2(C)C)C(C)(C)CCC1 [beta-carotene] | – | – | showed a quenching effect
COc1cc(/C=C/C(=O)O)ccc1O [Ferulic Acid] | 1 | 4 | showed a quenching effect
O=C(O)c1cccc(C(=O)O)n1 [dipicolinic acid] | – | – | showed a quenching effect
O=C(O[C@@H]1Cc2c(O)cc(O)cc2O[C@@H]1c1cc(O)c(O)c(O)c1)c1cc(O)c(O)c(O)c1 [Epigallocatechin Gallate] | 4 | 4 | showed a quenching effect
CC(C)=CCC/C(C)=C/CC/C(C)=C/CC/C=C(\C)CC/C=C(\C)CCC=C(C)C [squalene] | – | – | showed a quenching effect
